Tests used:
SHSY5Y cells [1] = experiment: TMRE staining of mitochondrial membrane potential in SHSY5Y cells; type: cell-based; conditions: 10 μM, 72 hours
Procedure: (§1) FIGS. 6A-6C. Histograms showing TMRE staining of SH-SY5Y cells transiently expressing empty vector (Mock) or Swedish mutant APP in the presence or absence of 474 (10 μM) for 72 hours (FIG. 6A). Quantification of TMRE staining in (A). Error bars represent SEM for n=3 replicates. Statistics calculated from one-tailed Student's t-test. *p<0.05, **p<0.01, ***p<0.001 (FIG. 613). Graph showing relative luminescence from CellTiterGlo assay of SH-SY5Y cells transiently expressing empty vector or Swedish mutant APP cultured in galactose media for 72 hours in the presence or absence of IRE1 activator 474 (10 μM). Error bars represent SEM for n=3 replicates. Statistics calculated from one-tailed Student's t-test. *p<0.05, **p<0.01, ***p<0.001 (FIG. 6C).
Cells were treated as indicated then incubated with TMRE dye (200 nM) for 30 mins at 37° C. Samples were collected by trypsinization. Trypsin was neutralized by washing into cell culture media and then samples were washed twice in DPBS. […] Fluorescence intensity of TMRE was recorded on the PE channel of a Novocyte Flow Cytometer (ACEA Biosciences, Inc.). Data are presented as mean of the fluorescence intensity from 3 experiments. For each experiment, 10,000 cells per condition in triplicates were recorded.
Next, mitochondrial membrane potential was monitored in SHSY5Y cells overexpressing APP^SW and that had been treated with 474. […]

DNAJB9 = DNAJB9 expression in SHSY5Y cells overexpressing APP SW; type: cell-based
liver = experiment: Hepatic triglyceride content and gluconeogenic gene expression in DIO mice; type: in vivo, mouse; conditions: 6 weeks post dosing
From the text: FIGS. 8A-8E. Oral glucose tolerance test in DIO mice treated with either Vehicle or 474 for 3 weeks (n=8) (FIG. 8A). Serum glucose and insulin levels post 4 weeks of dosing with 474 or vehicle (FIG. 8B). Glucose stimulated insulin secretion in islets isolated from 474 or vehicle treated mice. (FIG. 8C). Hepatic triglyceride content (FIG. 8D) and gene expression profiles of gluconeogenic genes (FIG. 8E) at 6 weeks post dosing.
This effect can be rationalized, at least in part, by enhanced pancreatic f-cell function in 474-treated […], as shown by our studies in isolated pancreatic islets from vehicle- and 474-treated mice. […] Given the well-documented link between IRE1 and hepatic metabolism in T2D^55, we also examined markers of liver function after 474 treatment. We found reduced liver triglyceride accumulation in 474-treated mice relative to controls (FIG. 80).

ATF6 target genes = experiment: Liver RNA sequencing of DIO mice, ATF6 targets; type: in vivo, mouse; conditions: once-daily IP 50 mg/kg, 6 weeks
Procedure: (§2) FIGS. 7A-7D. RT-PCR of Xbp1s and the IRE1/XBP1s target gene Erdj4 from adipose tissue post single IP dose of 474 (FIG. 7A). Liver RNAseq profiles of ATF6, IRE1 and PERK target genes expressed as log 2 fold change of chronic 474 treatment compared to vehicle (FIG. 7B). Body weight (FIG. 7C) and food intake (FIG. 70) over 6 weeks of dosing.
(§3) To test the efficacy of pharmacologic IRE1 activation in mitigating T2D, we chronically administered 474 by once-daily IP injections at 50 mg/kg for a period of 6 weeks to Diet-Induced Obese (DIO) mice, a model of T2D.

PERK target genes = experiment: Liver RNA sequencing of DIO mice, PERK targets; type: in vivo, mouse; conditions: once-daily IP 50 mg/kg, 6 weeks
Procedure: as §2, §3

SHSY5Y cells [2] = experiment: CellTiterGlo ATP levels in SHSY5Y cells overexpressing APP SW; type: cell-based; conditions: APP SW overexpressing cells cultured in galactose, 10 μM, 72 hours
Procedure: as §1
For determination of relative cellular ATP levels, SHSY5Y cells were seeded into flat black, poly-D-lysine coated 96-well plates (Corning). […] Luminescence was then measured in an Infinite F200 PRO plate reader (Tecan and corrected for background signal. All measurements were performed in biologic triplicate.
Mitochondrial depolarization decreases the capacity for cells to produce ATP through oxidative phosphorylation at the inner mitochondrial membrane. […] Accordingly, ATP levels were monitored in SHSY5Y cells overexpressing APP^SW and incubated in media that was supplemented with glucose or galactose. […]

[3] = Toxicity, body weight and food intake in DIO mice; type: in vivo
Procedure: as §2, §3

APP = APP immunoblots of lysates and conditioned media of CHO 7PA2 cells; type: cell-based; conditions: CHO 7PA2, 10 μM
Procedure: FIGS. 5A-5D. […] Cells were treated for 18 hours, media was then replaced and conditioned in the presence of treatments for 24 hours before harvesting for ELISA assay. Error bars represent SEM for n=3 replicates. Statistics calculated from one-tailed Student's t-test. *p<0.05, **p<0.01, ***p<0.001 (FIG. 5A). Quantification of media and lysate immunoblots from 474 treatment (10 μM) of APP. Error bars represent Standard Deviation for n=3 replicates. Statistics calculated from one-tailed Student's t-test. *p<0.05, **p<0.01 ***p<0.001 (FIG. 5B). Plot showing fraction of total remaining APP at each time point after S35 metabolic labeling of newly synthesized protein, accounting for the sum of APP in lysate and media. Error bars represent Standard Deviation for n=3 replicates. Statistics calculated from one-tailed Student's t-test. *p<0.05, **p<0.01, ***p<0.001 (FIG. 5C). Plot showing fraction of secreted APP collected at 2 hours after metabolic labeling. Error bars represent Standard Deviation for n=3 replicates. Statistics calculated from one-tailed Student's t-test. *p<0.05, **p<0.01, ***p<0.001 (FIG. 5D). […]

Cc1ccc(OCCN(C)C(=O)Cn2cc(NC(=O)CCOc3ccccc3)cn2)cc1 [Compound 474]
APP SW-associated reductions in mitochondrial membrane potential (SHSY5Y cells [1]; SHSY5Y overexpressing APP SW): prevented | mitochondrial membrane potential (SHSY5Y cells [1]; mock-transfected cells): did not influence | DNAJB9 expression (DNAJB9): further increased | expression of genes associated with glucose metabolism in liver (liver): reductions | liver triglyceride accumulation (liver; relative to controls): reduced | ATF6 transcriptional response in liver (ATF6 target genes): modest induction | PERK target genes in liver (PERK target genes): no induction | ATP levels (SHSY5Y cells [2]): increased | body weight and food intake ([3]; 6-week dosing period): remaining similar in all groups | toxicity ([3]; DIO mice, once-daily IP 50 mg/kg, 6 weeks): no evident toxicity | APP levels in lysates and conditioned media (APP): reduced APP levels in both lysates and conditioned media

Reference: patent US11426402B2, “IRE1 activating compounds for use in therapy” (The Scripps Research Institute, priority 2019, dated 2022)
